Results on one compound are retold here after patent publication US11479804B1 (priority 2010, dated 2022).

Entries after “also recorded” stand apart in the source; their conditions may differ.

The target in test [1] is T1, acetylcholinesterase (Homo sapiens, UniProt P22303). In words: Acetylcholinesterase assay with malaoxon in complex samples (apple juice, whole milk, soil) using GEMBE. The format is biochemical. The note with it: for LOD in filtered apple juice: filtered apple juice (10× dilution); for LOD in soil: soil added as a slurry to the sample reservoir; for LOD in whole milk: whole milk (10× dilution). On the procedure:
Assay Conditions in Apple Juice. A running buffer was prepared consisting of 4-(2-hydroxyethyl)-1-piperazineethanesulfonic acid, i.e. HEPES, at a concentration of ˜100 mM and 2-[Bis(2-hydroxyethyl)amino]-2-(hydroxymethyl)-1,3-propanediol, i.e. BIS-TRIS, at a concentration of ˜100 mM. The running buffer was prepared at pH ˜7.1. EOTrol™ HR (Target Discovery, Palo Alto, Calif.) was added to the run buffer as a dynamic coating to reverse the direction of EOF at a concentration of 1% (by volume).
Prior to reaction, the surface of a polyoxymethylene sample reservoir (Delrin, DuPont, Wilmington, Del.) was passivated with bovine serum albumin (˜2 mg/mL). A sample containing malaoxon (˜1 mM) in filtered apple juice (10× dilution) was added to the sample reservoir. Acetylcholine (˜500 μM) and acetylcholinesterase (˜10.4 nM) were added to the sample reservoir and were allowed to incubate for ˜5 min.
Assay Conditions in Whole Milk. A running buffer was prepared consisting of 4-(2-hydroxyethyl)-1-piperazineethanesulfonic acid, i.e. HEPES, at a concentration of ˜100 mM and 2-[Bis(2-hydroxyethyl)amino]-2-(hydroxymethyl)-1,3-propanediol, i.e. BIS-TRIS, at a concentration of ˜100 mM. The running buffer was prepared at pH ˜7.1. EOTrol™ HR (Target Discovery, Palo Alto, Calif.) was added to the run buffer as a dynamic coating to reverse the direction of EOF at a concentration of 1% (by volume).
Prior to reaction, the surface of a polyoxymethylene sample reservoir (Delrin, DuPont, Wilmington, Del.) was passivated with bovine serum albumin (2 mg/mL). A sample containing malaoxon (˜1 mM) in whole milk (4% milk fat, Giant Food) at a dilution of 10× was added to the sample reservoir. Acetylcholine (˜500 μM) and acetylcholinesterase (˜10.4 nM) were added to the sample reservoir and were allowed to incubate for ˜5 minutes.
Assay Conditions in Soil. A running buffer was prepared consisting of 4-(2-hydroxyethyl)-1-piperazineethanesulfonic acid, i.e. HEPES, at a concentration of ˜100 mM and 2-[Bis(2-hydroxyethyl)amino]-2-(hydroxymethyl)-1,3-propanediol, i.e. BIS-TRIS, at a concentration of ˜100 mM. The running buffer was prepared at pH ˜7.1. EOTrol™ HR (Target Discovery, Palo Alto, Calif.) was added to the run buffer as a dynamic coating to reverse the direction of EOF at a concentration of 1% (by volume).
Prior to reaction, the surface of a polyoxymethylene sample reservoir (Delrin, DuPont, Wilmington, Del.) was passivated with bovine serum albumin (2 mg/mL). A sample containing malaoxon (˜1 mM) in soil was added as a slurry to the sample reservoir. Acetylcholine (˜500 μM) and acetylcholinesterase (˜10.4 nM) were added to the sample reservoir and were allowed to incubate for ˜5 min.
Separation of Acetylcholine and Choline Using Gradient Elution Moving Boundary Electrophoresis. The reaction mixtures were separately introduced into the inlet end of the separation channel of a GEMBE device, wherein a voltage of ˜−2000V was applied on the waste chamber. During the GEMBE separation, the pressure applied to the run buffer reservoir was varied from about 6,000 Pa to about −8,000 Pa at a rate of −300 Pa/s. The concentration of choline was detected and quantified.

The target of test [2] is T1, acetylcholinesterase. In kind it is biochemical.
The mark [3] stands for this setting: acetylcholine ~500 μM, acetylcholinesterase ~10.4 nM.

T1 sequence (P22303 32-614): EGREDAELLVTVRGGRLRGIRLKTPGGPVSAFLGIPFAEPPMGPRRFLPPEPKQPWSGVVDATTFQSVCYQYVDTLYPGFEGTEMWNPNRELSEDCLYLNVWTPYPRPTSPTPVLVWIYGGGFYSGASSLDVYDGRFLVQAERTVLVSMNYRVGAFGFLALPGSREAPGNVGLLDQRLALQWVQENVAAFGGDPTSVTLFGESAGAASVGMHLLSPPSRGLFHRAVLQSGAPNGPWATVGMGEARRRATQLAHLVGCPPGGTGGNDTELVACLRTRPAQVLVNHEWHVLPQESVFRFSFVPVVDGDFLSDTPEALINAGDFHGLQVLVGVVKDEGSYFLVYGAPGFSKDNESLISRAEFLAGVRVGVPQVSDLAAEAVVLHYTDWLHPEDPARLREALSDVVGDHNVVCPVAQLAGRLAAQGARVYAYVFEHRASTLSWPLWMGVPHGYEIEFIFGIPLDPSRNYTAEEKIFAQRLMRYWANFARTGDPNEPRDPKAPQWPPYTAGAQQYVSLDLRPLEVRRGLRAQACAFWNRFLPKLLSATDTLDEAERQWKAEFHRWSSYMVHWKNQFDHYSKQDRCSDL

For `CCOC(=O)CC(SP(=O)(OC)OC)C(=O)OCC` (stereo not drawn) [malaoxon], in test [1], the “LOD in filtered apple juice” value was determined as 85.6 ppb, the LOD in soil was found to be 1.5 ppm and the “LOD in whole milk” value is recorded as 82.0 ppb. For the same compound, in test [1] (setting [3]), the “LOD in filtered apple juice” value is roughly 2.72e-07 M, the LOD in soil is roughly 4.93e-06 M and the “LOD in whole milk” value is roughly 2.61e-07 M. Also, in test [2], the “concentration of choline formed (inhibition of acetylcholinesterase)” value is listed as “a decrease in the concentration of choline was observed; also recorded: the concentration of choline does not increase over time”, the “limit of detection (LOD)” value stood at 87.7 ppb and the “limit of detection (LOD) from conversion rate of acetylcholine to choline” value was roughly 279 nM.
